Results as given in patent US8916711B2, “Imidazothiazole-chalcone derivatives as potential anticancer agents and process for the preparation thereof” (Council of Scientific and Industrial Research, priority 2009, dated 2014).
pIC50: −log10 of the molar value. Like-named read-outs stand apart in the source and are kept apart here.

Assays:
Assay type in all cases: cell-based
K-562 = assay: NCI in vitro cytotoxicity (SRB, 48 h), Leukemia panel; conditions: Homo sapiens, K562; K-562, Leukemia; 48 h exposure
CAKI-1 = assay: NCI in vitro cytotoxicity (SRB, 48 h), Renal panel; conditions: Homo sapiens
SNB-19 = assay: NCI in vitro cytotoxicity (SRB, 48 h), CNS panel; conditions: Homo sapiens; SNB-19, CNS; 48 h exposure
T-47D = assay: NCI in vitro cytotoxicity (SRB, 48 h), Breast panel; conditions: Homo sapiens, T47D, 48 h exposure
SF-268 = assay: NCI in vitro cytotoxicity (SRB, 48 h), CNS panel; conditions: Homo sapiens; SF-268, CNS; 48 h exposure
OVCAR-8 = assay: NCI in vitro cytotoxicity (SRB, 48 h), Ovarian panel; conditions: Homo sapiens
MCF7 = assay: NCI in vitro cytotoxicity (SRB, 48 h), Breast panel; conditions: Homo sapiens
Method: (§1) The imidazothiazole-chalcone hybrids 7a, 7e, 7f, 8f and 19e have been tested against sixty human tumour cell lines derived from nine cancer types (leukemia, non-small cell lung cancer, colon cancer, CNS cancer, melanoma, ovarian cancer, renal cancer, prostate cancer and breast cancer) as per NCI protocol. For each compound, dose response curves for individual cell lines have been measured at a minimum of five concentrations at 10 fold dilutions. A protocol of 48 h continuous drug exposure has been used, and a sulforhodamine B (SRB) protein assay was used to estimate cell viability or growth. The concentration for 50% cell growth inhibition (GI50), total cell growth inhibition (TGI, 0% growth) and 50% cell death (LC50, […]) compared with the control has been calculated (Table-1).

MDA-MB-231/ATCC = assay: as above; conditions: Homo sapiens
Method: as §1

HCT-116 = assay: NCI in vitro cytotoxicity (SRB, 48 h), Colon panel; conditions: Homo sapiens
M14 = assay: NCI in vitro cytotoxicity (SRB, 48 h), Melanoma panel; conditions: Homo sapiens, 48 h exposure
SK-OV-3 = assay: NCI in vitro cytotoxicity (SRB, 48 h), Ovarian panel; conditions: Homo sapiens; SK-OV-3, Ovarian; 48 h exposure
SNB-75 = assay: NCI in vitro cytotoxicity (SRB, 48 h), CNS panel; conditions: Homo sapiens; SNB-75, CNS; 48 h exposure
786-0 = assay: NCI in vitro cytotoxicity (SRB, 48 h), Renal panel; conditions: Homo sapiens; 786-0, Renal; 48 h exposure
LOX IMVI = assay: NCI in vitro cytotoxicity (SRB, 48 h), Melanoma panel; conditions: Homo sapiens, 48 h exposure
Melanoma cell lines = assay: NCI in vitro cytotoxicity, whole panel; conditions: Homo sapiens
SK-MEL-5 = assay: NCI in vitro cytotoxicity (SRB, 48 h), Melanoma panel; conditions: Homo sapiens; SK-MEL-5, Melanoma; 48 h exposure
Renal cancer cell lines = assay: NCI in vitro cytotoxicity, whole panel; conditions: Homo sapiens
COLO 205 = assay: NCI in vitro cytotoxicity (SRB, 48 h), Colon panel; conditions: Homo sapiens; COLO 205, Colon; 48 h exposure
Colon cancer cell lines = assay: NCI in vitro cytotoxicity, whole panel; conditions: Homo sapiens
UACC-62 = assay: NCI in vitro cytotoxicity (SRB, 48 h), Melanoma panel; conditions: Homo sapiens; UACC-62, Melanoma; 48 h exposure
[1] = test system: Prostate cancer cell lines; assay: NCI in vitro cytotoxicity, whole panel; conditions: Homo sapiens
SW-620 = assay: NCI in vitro cytotoxicity (SRB, 48 h), Colon panel; conditions: Homo sapiens; SW-620, Colon; 48 h exposure
MDAMB-435 = assay: NCI in vitro cytotoxicity (SRB, 48 h), Melanoma panel; conditions: Homo sapiens, MDA-MB-435; MDAMB-435, Melanoma; 48 h exposure
OVCAR-4 = assay: NCI in vitro cytotoxicity (SRB, 48 h), Ovarian panel; conditions: Homo sapiens; OVCAR-4, Ovarian; 48 h exposure
HT29 = assay: NCI in vitro cytotoxicity (SRB, 48 h), Colon panel; conditions: Homo sapiens, HT-29, 48 h exposure
SN12C = assay: NCI in vitro cytotoxicity (SRB, 48 h), Renal panel; conditions: Homo sapiens, 48 h exposure
UO-31 = assay: NCI in vitro cytotoxicity (SRB, 48 h), Renal panel; conditions: Homo sapiens; UO-31, Renal; 48 h exposure
IGROV1 = assay: NCI in vitro cytotoxicity (SRB, 48 h), Ovarian panel; conditions: Homo sapiens, IGROV-1
Breast cancer cell lines = assay: NCI in vitro cytotoxicity, whole panel; conditions: Homo sapiens
BT-549 = assay: NCI in vitro cytotoxicity (SRB, 48 h), Breast panel; conditions: Homo sapiens; BT-549, Breast; 48 h exposure
NCI-H322M = assay: NCI in vitro cytotoxicity (SRB, 48 h), Non-small cell lung panel; conditions: Homo sapiens, 48 h exposure
PC-3 = assay: NCI in vitro cytotoxicity (SRB, 48 h), Prostate panel; conditions: Homo sapiens; PC-3, Prostate; 48 h exposure

In the case of `COc1ccc(-c2nc3sccn3c2/C=C/C(=O)c2cc(OC)c(OC)c(OC)c2)cc1` [Compound 7a, (E)-3-(6-(4-methoxyphenyl)imidazo[2,1-b]thiazol-5-yl)-1-(3,4,5-trimethoxyphenyl) prop-2-en-1-one], the GI50 (K-562) was 1720 nM, the GI50 (CAKI-1; CAKI-1, Renal, 48 h exposure) was 1200 nM and the pIC50 (CAKI-1; CAKI-1, Table 4, read-out: Comparative efficacy) was 5.92. The GI50 (SNB-19) was 3540 nM, the GI50 (T-47D) was 2260 nM and the GI50 (SF-268) was 2890 nM. For the same compound, the GI50 (OVCAR-8; OVCAR-8, Ovarian, 48 h exposure) was 2010 nM, the GI50 (OVCAR-8; OVCAR-8, ovarian) was 2010 nM and the pIC50 (MCF7; MCF7, MCF-7, Table 4, read-out: Comparative efficacy) was 5.69. The GI50 (MCF7; MCF7, Breast, 48 h exposure) was 2020 nM, the GI50 (MDA-MB-231/ATCC; Breast, 48 h exposure) was 2550 nM and the pIC50 (MDA-MB-231/ATCC; Table 4, read-out: Comparative efficacy) was 5.59. For the same compound, the pIC50 (HCT-116; HCT-116, HCT116, Table 4, read-out: Comparative efficacy) was 5.73, the GI50 (HCT-116; HCT-116, Colon, 48 h exposure) was 1880 nM and the GI50 (HCT-116; HCT-116, colon) was 1880 nM. For the same compound, the GI50 (M14) was 2330 nM, the GI50 (SK-OV-3) was 3280 nM and the GI50 (SNB-75) was 2290 nM. The GI50 (786-0) was 2580 nM, the GI50 (LOX IMVI) was 2420 nM and the GI50 (Melanoma cell lines; Melanoma, average of six to eight cell lines, read-out: Log10 GI50 (converted)) was 2630 nM. For the same compound, the CC50 (Melanoma cell lines; Melanoma, average of six to eight cell lines, read-out: Log10 LC50 (converted)) was 70800 nM, the GI50 (Melanoma cell lines; exposure period of at least 48 hrs, read-out: GI50, range over melanoma cell lines) was 1300 to 5420 nM and the GI50 (SK-MEL-5) was 1300 nM. It also gave a GI50 (Renal cancer cell lines; Renal, average of six to eight cell lines, read-out: Log10 GI50 (converted)) of 2510 nM, a CC50 (Renal cancer cell lines; Renal, average of six to eight cell lines, read-out: Log10 LC50 (converted)) of no less than 100000 nM and a GI50 (Renal cancer cell lines; exposure period of at least 48 hrs, read-out: GI50, range over renal cell lines) of 1120 to 5040 nM. The GI50 (COLO 205) was 2520 nM, the GI50 (Colon cancer cell lines; Colon, average of six to eight cell lines, read-out: Log10 GI50 (converted)) was 2630 nM and the CC50 (Colon cancer cell lines; Colon, average of six to eight cell lines, read-out: Log10 LC50 (converted)) was 72400 nM. For the same compound, the GI50 (Colon cancer cell lines; exposure period of at least 48 hrs, read-out: GI50, range over colon cell lines) was 1770 to 3450 nM, the GI50 (UACC-62) was 2080 nM and the GI50 ([1]; Prostate cell, exposure period of at least 48 hrs, read-out: GI50, range over prostate cell lines) was 2620 to 3100 nM. It also gave a GI50 ([1]; Prostate, average of the panel's cell lines, read-out: Log10 GI50 (converted)) of 2880 nM, an LC50 ([1]; Prostate, average of the panel's cell lines, read-out: Log10 LC50 (converted)) of no less than 100000 nM and a GI50 (SW-620) of 3160 nM. The GI50 (MDAMB-435) was 2850 nM, the GI50 (OVCAR-4) was 4050 nM and the GI50 (HT29) was 3120 nM. It also gave a GI50 (SN12C) of 2880 nM, a GI50 (UO-31) of 1120 nM and a GI50 (IGROV1; IGROV1, Ovarian, 48 h exposure) of 210 nM. For the same compound, the GI50 (IGROV1; IGROV1, ovarian) was 210 nM, the pIC50 (IGROV1; IGROV1, Table 4, read-out: Comparative efficacy) was 6.68 and the GI50 (Breast cancer cell lines; Breast, average of six to eight cell lines, read-out: Log10 GI50 (converted)) was 2510 nM. For the same compound, the CC50 (Breast cancer cell lines; Breast, average of six to eight cell lines, read-out: Log10 LC50 (converted)) was no less than 100000 nM, the pIC50 (Breast cancer cell lines; exposure period of at least 48 hrs, read-out: IC50, range over breast cell lines) was 5.46 to 5.72 and the GI50 (BT-549) was 3460 nM. The GI50 (NCI-H322M) was 3700 nM and the GI50 (PC-3) was 3100 nM.
